This is an account of results in publication PMC4825926, “FleA Expression in Aspergillus fumigatus Is Recognized by Fucosylated Structures on Mucins and Macrophages to Prevent Lung Infection” (PLoS Pathogens, 2016).

Read-outs that look alike come from different tables or passages of the source.

Assay [1] has as its target T1, FleA (AFL, Aspergillus fumigatus lectin) (Aspergillus fumigatus, UniProt Q4WW81).
T1 construct: about 34 kDa; no canonical signal peptide
As to the kind of experiment: competition plate assay: biotinylated FleA binding to immobilised human airway mucin.

A further assay concerns the target T2, PA-IIL (PAIIL) (Pseudomonas aeruginosa, UniProt Q9HYN5).
T2 construct: gene lecB
As to the kind of experiment: competition assay: PA-IIL binding to human airway mucin.

The target of assay [2] is T1, FleA (AFL, Aspergillus fumigatus lectin). In words: competition plate assay: biotinylated FleA binding to immobilised human airway mucin. Particulars: 10 mM CaCl2, TBS-Tween; 100 mM L-galactose.

T1 sequence (Q4WW81 whole entry): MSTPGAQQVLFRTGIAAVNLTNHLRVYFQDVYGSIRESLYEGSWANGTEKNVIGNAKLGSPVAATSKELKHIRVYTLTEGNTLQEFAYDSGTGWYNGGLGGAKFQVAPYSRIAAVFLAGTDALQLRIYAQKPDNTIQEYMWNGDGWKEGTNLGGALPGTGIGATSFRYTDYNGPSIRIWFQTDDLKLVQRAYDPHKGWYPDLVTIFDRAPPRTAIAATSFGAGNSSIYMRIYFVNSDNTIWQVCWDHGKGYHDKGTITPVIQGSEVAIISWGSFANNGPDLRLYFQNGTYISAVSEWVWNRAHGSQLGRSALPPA
T2 sequence (Q9HYN5 entry or part of it): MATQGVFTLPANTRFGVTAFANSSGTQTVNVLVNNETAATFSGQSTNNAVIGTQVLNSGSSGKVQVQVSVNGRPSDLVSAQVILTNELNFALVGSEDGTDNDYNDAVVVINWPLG

As a reminder, the IC50 is the concentration that gives 50% inhibition. High values mean lower potency, low ones higher potency. `CCC/C=C/CO[C@H]1O[C@H](CO)[C@H](O)[C@H](O)[C@H]1O` [(2E)-hexenyl α-D-galactopyranoside] yielded an IC50 in assay [1] of 15300 µM.
For the compound `CCC/C=C/CO[C@@H]1O[C@@H](C)[C@@H](O)[C@@H](O)[C@@H]1O` [(2E)-hexenyl α-L-fucopyranoside], the IC50 in assay [1] turned out to be 0.012 µM; on PA-IIL (PAIIL), 1.6 µM.
In assay [1], `CCCCC/C=C/CO[C@@H]1O[C@@H](C)[C@@H](O)[C@@H](O)[C@@H]1O` [(2E)-octenyl α-L-fucopyranoside] showed an IC50 of 2100 µM.
On to `C[C@@H]1OC(O)[C@@H](O)[C@H](O)[C@@H]1O` (stereo partly drawn) [L-fucose], for which the concentration for half-maximal inhibition (IC50) in assay [1] (10 mM CaCl2, TBS-Tween, inhibition of FleA-mucin binding) is 801 µM.
Regarding `OC[C@@H]1OC(O)[C@@H](O)[C@H](O)[C@@H]1O` (stereo partly drawn) [L-galactose], in assay [2], the “inhibition at 100 mM” value was “No inhibition was observed with galactose (Fig 1A)”.
Regarding `C=CCO[C@@H]1O[C@@H](C)[C@@H](O)[C@@H](O)[C@@H]1O` [allyl α-L-fucopyranoside], in assay [1], the concentration for half-maximal inhibition (IC50) was 264 µM.
Still for that read-out and setting: the value for `CCCCCCO[C@@H]1O[C@@H](C)[C@@H](O)[C@@H](O)[C@@H]1O` [hexyl α-L-fucopyranoside] was 361 µM; that for `CO[C@@H]1O[C@@H](C)[C@@H](O)[C@@H](O)[C@@H]1O` [methyl α-L-fucopyranoside] was 450 µM.
